Here are results for twelve compounds from patent US20090318403A1, “ANTIBIOTIC COMPOSITION” (Prosensa Technologies B.V., priority 2006, published 2009).

Type in all cases: cell-based
The test system of assay [1] is P. aeruginosa clinical isolate PA7252. Description: Growth inhibition (MIC) of clinical P. aeruginosa isolate PA7252. Particulars: Pseudomonas aeruginosa, isolate PA7252, 10^4 bacteria in 20% LB, 20 h.
Assay [2] concerns P. aeruginosa clinical isolate PA7243. As to the kind of experiment: Growth inhibition (MIC) of clinical P. aeruginosa isolate PA7243. Particulars: Pseudomonas aeruginosa, isolate PA7243, 10^4 bacteria in 20% LB, 20 h.
Assay [3] relates to P. aeruginosa clinical isolate PA7249. Description: Growth inhibition (MIC) of clinical P. aeruginosa isolate PA7249. Particulars: Pseudomonas aeruginosa, isolate PA7249, 10^4 bacteria in 20% LB, 20 h.
In assay [4] the test system is Pseudomonas aeruginosa PA01. Description: Growth inhibition (MIC, OD550 after 20 h) of P. aeruginosa PA01. Particulars: for MIC of antibiotic alone: antibiotic alone (Table 1); for MIC of antibiotic: PA01, inoculum 10^4 bacteria in 20% LB, after 20 h, antibiotic alone (Table 3); for MIC: Pseudomonas aeruginosa.
Assay [5] has as its system P. aeruginosa clinical isolate PA7247. As to the kind of experiment: Growth inhibition (MIC) of clinical P. aeruginosa isolate PA7247. Particulars: Pseudomonas aeruginosa, isolate PA7247, 10^4 bacteria in 20% LB, 20 h.
The subject of assay [6] is P. aeruginosa clinical isolate PA7253. Description: Growth inhibition (MIC) of clinical P. aeruginosa isolate PA7253. Particulars: Pseudomonas aeruginosa, isolate PA7253, 10^4 bacteria in 20% LB, 20 h.
Assay [7] deals with multidrug-resistant Acinetobacter baumannii LUH5771. Description: Growth inhibition of multidrug-resistant A. baumannii LUH5771. Particulars: for Susceptibility of the isolate to treatment: multi-resistant A. baumannii clinical isolate.
Assay [8] can be described thus: Sensitizer effect of short lipoamines (our studies). From the text: R1 in formula I represents a linear or branched alkyl group comprising at least 7 atoms in a straight chain. In this context alkyl group means that it is a group containing carbon atoms. For instance, for the lipoamines butylamine, pentylamine and hexylamine as disclosed in JP 57155954 no effect was found in our studies. It is understood that if not specified otherwise, C, O, N and S atoms in the alkyl group further comprise hydrogen atoms to properly satisfy the valency of the respective atom. At least 7 atoms in a straight chain is with respect to the longest group of atoms, not including hydrogen, directly connected to one another by covalent bonds starting from the nitrogen (N) in formula I. Such a group of at least 7 atoms in a straight chain thus can be part of cyclic elements, including aromatic rings, in R1, or in other words, one or more (saturated and/or unsaturated) rings can form (part of) the alkyl group comprising at least 7 atoms in a straight chain. The alkyl group may comprise one or more O, N and/or S atoms, which means that the chain of carbon atoms may be interrupted by one or more O, N and/or S atoms. It is preferred the alkyl group comprises an ω-CH3 group, or in other words starting from the nitrogen (N) in formula I the longest alkyl group preferably ends with a CH3.

Assay [9] deals with extended β-lactamase (ESBL) producing Klebsiella pneumoniae LUH5344. Description: Growth inhibition (MIC) of ESBL producing K. pneumoniae LUH5344. Particulars: K. pneumoniae LUH5344, 100% LB.
The test system of assay [10] is ceftazidime-resistant P. aeruginosa clinical isolate PA 24-7-3. Description: Growth inhibition (MIC) of ceftazidime-resistant P. aeruginosa PA 24-7-3. Particulars: Pseudomonas aeruginosa, PA 24-7-3, 20% LB.
Where [11] appears, read: PA01, 20% LB, 20 h, sensitizer alone.

Read-outs that look alike come from different tables or passages of the source.

As usually defined, the MIC is the least concentration at which growth counts as inhibited.

With `CC1(C)S[C@@H]2[C@H](NC(=O)[C@H](N)c3ccccc3)C(=O)N2[C@H]1C(=O)O` [ampicillin], the MIC in assay [1] (read-out: MIC ampicillin), in assay [2] (read-out: MIC ampicillin), in assay [3] (read-out: MIC ampicillin), in assay [5] (read-out: MIC ampicillin) and in assay [6] (read-out: MIC ampicillin) was above 200 µg/mL throughout. Moreover, in [4] (PA01, 20% LB, 20 h), the “MIC of antibiotic alone” value is “MIC >200 μg/mL”. In [4], the MIC of antibiotic was above 200 µg/mL. Further, in [7], the “Susceptibility of the isolate to treatment” value (“Susceptibility of the isolate” below) is “resistant”.

In the case of `CCCCN` [butylamine], the “Sensitizer effect” value in assay [8] is “no effect”.

Consider `CC(C)(O/N=C(\C(=O)N[C@@H]1C(=O)N2C(C(=O)[O-])=C(C[n+]3ccccc3)CS[C@H]12)c1csc(N)n1)C(=O)O` [ceftazidime], for which the MIC in [9] (read-out: MIC ceftazidime) and in [10] (read-out: MIC ceftazidime) was 6.25 µg/mL each time.

Take `CC(C)c1ccc2c(c1)CC[C@H]1[C@](C)(CN)CCC[C@]21C` [dehydroabietylamine]: the “MIC of sensitizer alone” value in [4] (setting [11]) was “MIC at ≧20 μM”.

Regarding `CCCCCCN` [hexylamine], the “Sensitizer effect” value in assay [8] was “no effect”.

In the case of `CC(=O)NC[C@H]1CN(c2ccc(N3CCOCC3)c(F)c2)C(=O)O1` [linezolid], the “MIC of antibiotic alone” value in [4] (PA01, 20% LB, 20 h) was “MIC >200 ug/mL μg/mL”.

On to `CCn1cc(C(=O)O)c(=O)c2ccc(C)nc21` [nalidixic acid], for which the MIC of antibiotic in [4] was 25 µg/mL.

Take `CCCCCCCC/C=C\CCCCCCCCN` [oleylamine]: the MIC in assay [1] (read-out: MIC oleylamine) is at least 40 µM; in [2] (read-out: MIC oleylamine), above 40 µM; in assay [9] (read-out: MIC oleylamine) it was at least 40 µM; in assay [3] (read-out: MIC oleylamine) it was above 40 µM; in assay [10] (read-out: MIC oleylamine) it was at least 20 µM; in assay [4] (setting [11]) it was at least 20 µM. The MIC was at least 40 µM in [5] (read-out: MIC oleylamine) and above 40 µM in assay [6] (read-out: MIC oleylamine). The oleylamine bactericidal concentration entry in [7] (A. baumannii LUH5771, oleylamine alone) is reported as “at ≧5 μM”. Also, in assay [7], the “Susceptibility of the isolate” value is on record as “resistant”.

Take `CCCCCN` [pentylamine]: the “Sensitizer effect” value in [8] is “no effect”.

As to `CCCCCCCCCCCCCCCCCCN` [stearylamine], the MIC in assay [4] (setting [11]) is at least 20 µM.

For `CC/C(=C(\c1ccccc1)c1ccc(OCCN(C)C)cc1)c1ccccc1` [tamoxifen], the MIC in assay [4] (setting [11]) was at least 20 µM.

In turn, gentamicin displayed an MIC gentamicin in assay [7] (A. baumannii LUH5771, gentamicin alone) above 200 µg·mL. The “Susceptibility of the isolate” value in assay [7] is “resistant”.
